Laboratory results: patent US20260069641A1, “GRAM-NEGATIVE BACTERIA FOR USE IN THE PREVENTION AND TREATMENT OF DISEASE IN POULTRY” (priority 2024, published 2026)

System: Eimeria acervulina, Eimeria maxima, and Eimeria tenella
Test: Second study: floor-pen broilers, cocci-challenge plus built-up litter, dried bacterial biomass in feed, 28 days
Format: in vivo, broiler chickens
Conditions: column F of the chart

With `CC[C@@]1([C@@H]2O[C@@H]([C@H]3O[C@@](O)(CO)[C@H](C)C[C@@H]3C)C[C@@H]2C)CC[C@H]([C@]2(C)CC[C@]3(C[C@H](O)[C@@H](C)[C@@H]([C@@H](C)[C@@H](OC)[C@H](C)C(=O)O)O3)O2)O1` [Coban, Monensin] the “Lesion Score Ileum Day 28” value was 0.325.
